In patent publication US6780994B2, “Phthalimido arylpiperazines useful in the treatment of benign prostatic hyperplasia” (Ortho-McNeil Pharmaceutical, Inc., priority 1998, dated 2004):

How the values were obtained:
α1b-AR = molecular target: T1, α1b-AR (Homo sapiens, UniProt P35368); experiment: radioligand ([125I]-HEAT) receptor binding assay, COS cell membranes expressing cloned receptor; conditions: [125I]-HEAT 50 pM, 1 hour room temperature
T1 construct: expressed in transfected cells; host or cells: COS cells, pcDNA3 vector, transient DEAE-dextran transfection
T1 sequence (P35368 1-520): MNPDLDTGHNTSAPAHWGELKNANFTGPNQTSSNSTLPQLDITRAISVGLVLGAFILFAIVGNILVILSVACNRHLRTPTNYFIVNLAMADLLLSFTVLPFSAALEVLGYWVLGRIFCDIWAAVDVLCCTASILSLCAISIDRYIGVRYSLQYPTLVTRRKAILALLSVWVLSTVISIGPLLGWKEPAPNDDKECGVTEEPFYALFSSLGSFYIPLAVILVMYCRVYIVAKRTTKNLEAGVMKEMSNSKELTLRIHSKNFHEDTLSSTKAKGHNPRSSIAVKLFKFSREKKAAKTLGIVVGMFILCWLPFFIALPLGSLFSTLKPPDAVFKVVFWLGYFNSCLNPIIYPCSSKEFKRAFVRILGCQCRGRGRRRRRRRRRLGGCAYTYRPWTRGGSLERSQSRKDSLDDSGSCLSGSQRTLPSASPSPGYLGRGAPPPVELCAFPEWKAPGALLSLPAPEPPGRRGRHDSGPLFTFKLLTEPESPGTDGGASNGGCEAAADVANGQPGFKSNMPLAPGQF
From the text: (§1) The first assay tested the ability of compounds of Formula I to bind to membrane bound receptors α1a-AR, α1b-AR and α1d-AR.
(§2) The DNA sequences of the three cloned human α1-AR subtypes have been published. […] We used published DNA sequence information to design primers for use in RT-PCR amplification of each subtype to obtain cloned cDNAs. Human poly A+ RNA was obtained from commercially available sources and included hippocampus and prostate samples, sources which have been cited in the literature. For the primary screen a radioligand binding assay was used which employed membrane preparations from cells expressing the individual cloned receptor cDNAs. Radiolabeled ligands with binding activity on all three subtypes (non-selective) are commercially available ([125I]-HEAT, [3H]-prazosin). Each α1 receptor subtype was cloned from poly A+ RNA by the standard method of reverse transcription-polymerase chain reaction (RT-PCR). The following sources of polyA+ RNA were used for the cloning of the α1 receptor subtypes: α1a-AR, human hippocampus and prostate, α1b-AR, human hippocampus, α1d-AR, human hippocampus. The resulting cDNAs were cloned into the pcDNA3 mammalian expression vector (Invitrogen Corp., San Diego Calif.). Each DNA was sequenced for verification and to detect any possible mutations introduced during the amplification process. Any deviation in sequence from the published consensus for each receptor subtype was corrected by site-directed mutagenesis.
(§3) The three α1-AR subtypes (a, b, d) were transfected into COS cells using a standard DEAE-dextran procedure with a chloroquine shock. In this procedure, each tissue culture dish (100 mm) was inoculated with 3.5×10^6 cells and transfected with 10 μg of DNA. Approximately 72 hours post-transfection, the cells were harvested and COS membranes were prepared. Transfected COS cells from 25 plates (100 mm) were scraped and suspended in 15 mL of TE buffer (50 mM Tris-HCl, 5 mM EDTA, pH 7.4). The suspension was disrupted with a homogenizer. It was then centrifuged at 1000× g for 10 minutes at 4° C. The supernatant was centrifuged at 34,500× g for 20 minutes at 4° C. The pellet was resuspended in 5 mL TNE buffer (50 mM Tris-HCl, 5 mM EDTA, 150 mM NaCl, pH 7.4). The resulting membrane preparation was aliquoted and stored at −70° C. The protein concentration was determined following membrane solubilization with TritonX-100.
(§4) The ability of each compound to bind to each of the α1-AR subtypes was assessed in a receptor binding assay. [125I]-HEAT, a non-selective α1-AR ligand, was used as the radiolabeled ligand. Each well of a 96-well plate received: 140 μL TNE, […] [125I]-HEAT diluted in TNE (50,000 cpm; final concentration 50 pM), 10 μL test compound diluted in DMSO (final concentration 1 pM-10 μM), […] COS cell membrane preparation expressing one of the three α1-AR subtypes (0.05-0.2 mg membrane protein). The plate was incubated for 1 hour at room temperature and the reaction mixtures were filtered through a Packard GF/C Unifilter filter plate. The filter plate was dried for 1 hour in a vacuum oven. Scintillation fluid ([…]) was added to each well, and the filter plate was counted in a Packard Topcount scintillation counter. Data was analyzed using GraphPad Prism software.
(§5) Tables A through D list the IC50 values expressed in nanomolar concentration for select compounds of the invention in all receptor subtypes.

α1d-AR = molecular target: T2, α1d-AR (Homo sapiens, UniProt P25100); experiment: as above; conditions: [125I]-HEAT 50 pM, 1 hour room temperature
T2 construct: expressed in transfected cells; host or cells: COS cells, pcDNA3 vector, transient DEAE-dextran transfection
T2 sequence (P25100 1-572): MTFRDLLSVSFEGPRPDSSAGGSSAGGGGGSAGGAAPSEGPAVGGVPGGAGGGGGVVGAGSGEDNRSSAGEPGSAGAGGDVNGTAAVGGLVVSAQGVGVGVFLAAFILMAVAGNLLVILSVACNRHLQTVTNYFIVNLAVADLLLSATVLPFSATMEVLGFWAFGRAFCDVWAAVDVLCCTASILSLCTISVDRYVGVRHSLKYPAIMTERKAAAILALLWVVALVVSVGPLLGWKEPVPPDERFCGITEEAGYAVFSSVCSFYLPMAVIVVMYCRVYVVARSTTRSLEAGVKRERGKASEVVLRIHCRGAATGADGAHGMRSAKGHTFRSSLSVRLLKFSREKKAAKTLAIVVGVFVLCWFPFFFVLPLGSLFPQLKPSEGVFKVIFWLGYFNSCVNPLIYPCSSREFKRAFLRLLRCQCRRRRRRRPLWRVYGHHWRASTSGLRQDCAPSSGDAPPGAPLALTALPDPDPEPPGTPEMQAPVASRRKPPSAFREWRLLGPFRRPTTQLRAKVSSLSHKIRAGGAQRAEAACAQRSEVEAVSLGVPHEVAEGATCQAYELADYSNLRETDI
From the text: as §1, §2, §3, §4, §5

SMILES	IC50 (α1b-AR)	IC50 (α1d-AR)
CC(C)Oc1ccccc1N1CCN(CC(O)CNC(=O)c2ccc3c(c2)C(=O)N(c2cccc(F)c2)C3=O)CC1 (racemic) [Compound 4]	1830 nM	76 nM
CC(C)Oc1ccccc1N1CCN(CC(O)CNC(=O)c2ccc3c(c2)C(=O)N(c2ccc(O)cc2)C3=O)CC1 (single isomer, unassigned) [Compound 35]	> 2000 nM	137 nM
CC(C)Oc1ccccc1N1CCN(CCCNC(=O)c2ccc3c(c2)C(=O)N(c2cccc(F)c2)C3=O)CC1 [Compound 6]	482 nM	22 nM
CC(C)Oc1ccccc1N1CCN(C[C@@H](O)CNC(=O)c2ccc3c(c2)C(=O)N(c2cccc(F)c2)C3=O)CC1 [Compound 9]	> 2000 nM	190 nM
CC(C)Oc1ccccc1N1CCN(CC(O)CNC(=O)c2ccc3c(c2)C(=O)N(c2cccnc2)C3=O)CC1 (centres unmarked) [Compound 11]	> 2000 nM	31 nM
COC(CNC(=O)c1ccc2c(c1)C(=O)N(c1cccc(F)c1)C2=O)CN1CCN(c2ccccc2OC(C)C)CC1 (centres unmarked) [Compound 14]	> 2000 nM	407 nM
CC(C)Oc1ccccc1N1CCN(C[C@@H](O)CNC(=O)c2ccc3c(c2)C(=O)N(c2ccc(N(C)C)cc2)C3=O)CC1 [Compound 21, (S)-2-[4-(dimethylamino)phenyl]-2,3-dihydro-N-[2-hydroxy-3-[4-[2-(1-methylethoxy)phenyl]-1-piperazinyl]propyl]-1,3-dioxo-1H-isoindole-5-carboxamide]	> 2000 nM	52 nM
COc1ccccc1N1C(=O)c2ccc(C(=O)NCC(O)CN3CCN(c4ccccc4OC(C)C)CC3)cc2C1=O (centres unmarked) [Compound 26]	1640 nM	74 nM
CC(C)Oc1ccccc1N1CCN(C[C@H](O)CNC(=O)c2ccc3c(c2)C(=O)N(c2cccc(F)c2)C3=O)CC1 [Compound 27]	> 2000 nM	63 nM
CC(C)Oc1ccccc1N1CCN(CC(O)CNC(=O)c2ccc3c(c2)C(=O)N(c2ccc(N(C)C)cc2)C3=O)CC1 (centres unmarked) [Compound 28]	> 2000 nM	44 nM
CC(C)Oc1ccccc1N1CCN(CC(O)CNC(=O)c2ccc3c(c2)C(=O)N(c2cc(F)cc(F)c2)C3=O)CC1 (centres unmarked) [Compound 29]	886 nM	38 nM
CC(C)Oc1ccccc1N1CCN(CC(O)CNC(=O)c2ccc3c(c2)C(=O)N(c2ccc([N+](=O)[O-])cc2)C3=O)CC1 (centres unmarked) [Compound 30]	> 2000 nM	38 nM
COc1ccc(N2C(=O)c3ccc(C(=O)NCC(O)CN4CCN(c5ccccc5OC(C)C)CC4)cc3C2=O)cc1OC (centres unmarked) [Compound 38]	> 2000 nM	175 nM
Cc1ccc(N2C(=O)c3ccc(C(=O)NCC(O)CN4CCN(c5ccccc5OC(C)C)CC4)cc3C2=O)cc1C (centres unmarked) [Compound 39]	> 2000 nM	73 nM
CC(C)Oc1ccccc1N1CCN(CC(O)CNC(=O)c2ccc3c(c2)C(=O)N(c2ccc(C(C)(C)C)cc2)C3=O)CC1 (centres unmarked) [Compound 41]	> 2000 nM	75 nM
CCOc1ccccc1N1CCN(CC(O)CNC(=O)c2ccc3c(c2)C(=O)N(c2cccc(F)c2)C3=O)CC1 (centres unmarked) [Compound 42]	> 2000 nM	136 nM

SMILES	IC50 (α1b-AR)	IC50 (α1d-AR)
COc1ccccc1N1CCN(CC(O)CNC(=O)c2ccc3c(c2)C(=O)N(c2cccc(F)c2)C3=O)CC1 (centres unmarked) [Compound 43]	> 2000 nM	540 nM
CC(C)Oc1ccccc1N1CCN(CCCNC(=O)c2ccc3c(c2)C(=O)N(c2ccc(N(C)C)cc2)C3=O)CC1 [Compound 44]	465 nM	15 nM
COc1ccc(N2C(=O)c3ccc(C(=O)NCCCN4CCN(c5ccccc5OC(C)C)CC4)cc3C2=O)cc1 [Compound 45]	361 nM	16 nM
Cc1ccc(N2C(=O)c3ccc(C(=O)NCCCN4CCN(c5ccccc5OC(C)C)CC4)cc3C2=O)cc1 [Compound 46]	> 2000 nM	37 nM
CC(C)Oc1ccccc1N1CCN(CCCNC(=O)c2ccc3c(c2)C(=O)N(c2ccc(O)cc2)C3=O)CC1 [Compound 47]	255 nM	13 nM
CC(=O)c1ccc(N2C(=O)c3ccc(C(=O)NCC(O)CN4CCN(c5ccccc5OC(C)C)CC4)cc3C2=O)cc1 (centres unmarked) [Compound 48]	> 2000 nM	60 nM
Cc1cccc(N2C(=O)c3ccc(C(=O)NCC(O)CN4CCN(c5ccccc5OC(C)C)CC4)cc3C2=O)c1 (centres unmarked) [Compound 49]	> 2000 nM	73 nM
CC(C)Oc1ccccc1N1CCN(CC(O)CNC(=O)c2ccc3c(c2)C(=O)N(c2ccc(F)cc2)C3=O)CC1 (centres unmarked) [Compound 50]	> 2000 nM	111 nM
CC(C)Oc1ccccc1N1CCN(CC(O)CNC(=O)c2ccc3c(c2)C(=O)N(c2ccccc2)C3=O)CC1 (centres unmarked) [Compound 51]	> 2000 nM	65 nM
Cc1ccc(N2C(=O)c3ccc(C(=O)NCC(O)CN4CCN(c5ccccc5OC(C)C)CC4)cc3C2=O)cc1 (centres unmarked) [Compound 52]	> 2000 nM	62 nM
CC(C)Oc1ccccc1N1CCN(CC(O)CNC(=O)c2ccc3c(c2)C(=O)N(c2ccc(Cl)cc2)C3=O)CC1 (centres unmarked) [Compound 53]	606 nM	55 nM
CC(C)Oc1ccccc1N1CCN(CC(O)CNC(=O)c2ccc3c(c2)C(=O)N(c2cccc(Cl)c2)C3=O)CC1 (centres unmarked) [Compound 54]	669 nM	37 nM
CC(C)Oc1ccccc1N1CCN(CC(O)CNC(=O)c2ccc3c(c2)C(=O)N(c2ccc(Cl)c(Cl)c2)C3=O)CC1 (centres unmarked) [Compound 56]	1230 nM	40 nM
CC(C)Oc1ccccc1N1CCN(CC(O)CNC(=O)c2ccc3c(c2)C(=O)N(c2cccc(C(F)(F)F)c2)C3=O)CC1 (centres unmarked) [Compound 57]	> 2000 nM	89 nM
CC(C)Oc1ccccc1N1CCN(CC(O)CNC(=O)c2ccc3c(c2)C(=O)N(c2ccc(O)cc2)C3=O)CC1 (centres unmarked) [Compound 58]	> 2000 nM	28 nM
